Assay [1] addresses T1, Akt3 (Homo sapiens, UniProt Q9Y243).
T1 construct: endogenous in cells; host or cells: primary human CD4+/CD45RA+/CD25- naive T cells
In words: Akt3 activation activity of selected compounds. It counts as cell-based. The settings on record: Table 2. The protocol:
(§1) Human CD4+/CD45RA+/CD25-naïve T cells were plated under induction conditions (IL-2/anti-CD3/anti-CD28+TGFβ) in the absence or presence of compounds for 72 hours. To determine the compounds' specificity for each phospho-AKT isoform, phospho-AKT cellular HTRF kits (Cisbio catalogue numbers 63ADK078PEG (pAKT1), 63ADK080PEG (p-AKT2), and 63ADK082PEG (pAKT3)) were used according to manufacturer specifications. Briefly, after removal of the supernatant, cells were lysed, and total protein concentration measured and normalized for all samples. The cell lysates were transferred into 384-well plates and Eu Cryptate antibody+d2 antibody mixture was added. This process was the same for each isoform but utilized the corresponding isoform antibodies from each respective kit. Positive and negative controls (supplied with the kit) were incorporated into each experiment. The plates were incubated overnight. Data acquisition was performed on the Varioskan Lux reader utilizing the settings for the TRF fluorescence protocol. Data was presented as percent change over DMSO-treated controls. Each test condition was run in duplicate, and the assay was performed at least twice.

In assay [2] the target is T1, Akt3. In words: Akt3 inhibition activity of selected compounds. The format is cell-based. To be noted: Table 1. The method, then:
as §1

T1 sequence (Q9Y243 whole entry): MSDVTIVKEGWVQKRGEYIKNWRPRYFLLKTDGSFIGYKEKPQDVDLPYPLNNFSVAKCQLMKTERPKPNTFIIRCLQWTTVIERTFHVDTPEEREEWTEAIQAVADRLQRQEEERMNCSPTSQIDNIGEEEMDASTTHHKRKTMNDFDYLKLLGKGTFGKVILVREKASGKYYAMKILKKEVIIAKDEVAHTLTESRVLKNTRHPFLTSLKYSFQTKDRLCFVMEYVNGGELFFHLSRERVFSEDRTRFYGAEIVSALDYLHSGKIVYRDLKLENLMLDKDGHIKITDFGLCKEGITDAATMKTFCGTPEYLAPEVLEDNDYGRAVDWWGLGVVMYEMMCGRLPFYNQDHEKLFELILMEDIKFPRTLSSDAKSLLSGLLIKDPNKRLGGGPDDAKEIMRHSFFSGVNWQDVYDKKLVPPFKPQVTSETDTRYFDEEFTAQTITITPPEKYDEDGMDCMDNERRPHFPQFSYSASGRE

Usually IC50 stands for the concentration that inhibits the measured activity by half. On Akt3 [1], `CS(=O)(=O)c1ccc2nccc(Nc3cccc(C(=O)Nc4cccc(Nc5ccncc5)c4)c3)c2c1` [Compound 3, 3-((6-(methylsulfonyl)quinolin-4-yl)amino)-N-(3-(pyridin-4-ylamino)phenyl)benzamide] displayed an IC50 of under 5000 nM.

`C#Cc1ccc2nccc(Nc3cccc(C(=O)Nc4cccc(Nc5ccncc5)c4)c3)c2c1` [Compound 4, 3-((6-ethynylquinolin-4-yl)amino)-N-(3-(pyridin-4-ylamino)phenyl)benzamide] yielded an IC50 at Akt3 [2] of under 1000 nM.

At Akt3 [2], `[N-]=[N+]=Nc1ccc2nccc(Nc3cccc(C(=O)Nc4cccc(Nc5ccncc5)c4)c3)c2c1` [Compound 5, 3-((6-azidoquinolin-4-yl)amino)-N-(3-(pyridin-4-ylamino)phenyl)benzamide] had an IC50 of under 1000 nM.

In turn, `N#Cc1ccc2nccc(Nc3cccc(C(=O)Nc4cccc(Nc5ccncc5)c4)c3)c2c1` [Compound 6, 3-((6-cyanoquinolin-4-yl)amino)-N-(3-(pyridin-4-ylamino)phenyl)benzamide] registered a concentration for half-maximal inhibition (IC50) on Akt3 [1] of under 2000 nM.

Molecule `O=C(Nc1cccc(Oc2ccncc2)c1)c1cccc(Nc2ccnc3ccc(F)cc23)c1` [Compound 10, 3-((6-fluoroquinolin-4-yl)amino)-N-(3-(pyridin-4-yloxy)phenyl)benzamide] registered an IC50 on Akt3 [2] of under 500 nM.

`O=C(Nc1cccc(Nc2ccncc2)n1)c1cccc(Nc2ccnc3ccc(F)cc23)c1` [Compound 21, 3-((6-fluoroquinolin-4-yl)amino)-N-(6-(pyridin-4-ylamino)pyridin-2-yl)benzamide]: the IC50 at Akt3 [2] is under 2000 nM.

Take `N#Cc1ccc2nccc(Nc3cccc(C(=O)Nc4cc(Nc5ccncc5)ccn4)c3)c2c1` [Compound 26, 3-((6-cyanoquinolin-4-yl)amino)-N-(4-(pyridin-4-ylamino)pyridin-2-yl)benzamide]: at Akt3 [1], the IC50 is under 5000 nM.

Turning to `CN(C)c1ccc2nccc(Nc3cccc(C(=O)Nc4cccc(Nc5ccncc5)c4)c3)c2c1` [Compound 31, 3-((6-(dimethylamino)quinolin-4-yl)amino)-N-(3-(pyridin-4-ylamino)phenyl)benzamide], at Akt3 [1], the IC50 is under 1000 nM.

For the molecule `O=C(Nc1cc(Nc2ccncc2)ccn1)c1cccc(Nc2ccnc3ccccc23)c1` [Compound 38, N-(4-(pyridin-4-ylamino)pyridin-2-yl)-3-(quinolin-4-ylamino)benzamide], the IC50 against Akt3 [2] was under 1000 nM.

As to `Cc1cc(Nc2cccc(NC(=O)c3cccc(Nc4ccnc5ccc(N(C)C)cc45)c3)c2)ccn1` [Compound 59, 3-((6-(dimethylamino)quinolin-4-yl)amino)-N-(3-((2-methylpyridin-4-yl)amino)phenyl)benzamide], the IC50 against Akt3 [1] is under 1000 nM.

Molecule `Cc1cc(Nc2ccnc(NC(=O)c3cccc(Nc4ccnc5ccc(N(C)C)cc45)c3)c2)ccn1` [Compound 61, 3-((6-(dimethylamino)quinolin-4-yl)amino)-N-(4-((2-methylpyridin-4-yl)amino)pyridin-2-yl)benzamide] showed an IC50 against Akt3 [1] of under 1000 nM.

With `Cc1cc(Oc2cccc(NC(=O)c3cncc(Nc4ccnc5ccc(N(C)C)cc45)c3)c2)ccn1` [Compound 65, 5-((6-(dimethylamino)quinolin-4-yl)amino)-N-(3-((2-methylpyridin-4-yl)oxy)phenyl)nicotinamide], the half-maximal inhibitory concentration (IC50) against Akt3 [1] was under 2000 nM.

As for `O=C(c1cccc(Nc2ccnc3ccc(F)cc23)c1)N1CCc2c(Nc3ccncc3)cccc21` [Compound 67, (3-((6-fluoroquinolin-4-yl)amino)phenyl)(4-(pyridin-4-ylamino)indolin-1-yl)methanone], the IC50 against Akt3 [2] is under 2000 nM.

Molecule `O=C(Nc1cccc(Nc2ccccc2)c1)c1cccc(Nc2ccncc2)c1` [Compound 97, N-(3-(phenylamino)phenyl)-3-(pyridin-4-ylamino)benzamide] yielded an IC50 against Akt3 [2] of under 5000 nM.

`Cc1cc(Nc2cccc(C(=O)Nc3cccc(Nc4ccccc4)c3)c2)ccn1` [Compound 99, 3-((2-methylpyridin-4-yl)amino)-N-(3-(phenylamino)phenyl)benzamide] showed an IC50 against Akt3 [2] of under 2000 nM.

On to `N#Cc1ccc2nccc(Nc3cccc(-c4nc5ccc(Nc6ccncc6)nc5[nH]4)c3)c2c1` [Compound 106, 4-((3-(5-(pyridin-4-ylamino)-3H-imidazo[4,5-b]pyridin-2-yl)phenyl)amino)quinoline-6-carbonitrile], for which the IC50 against Akt3 [1] is under 2000 nM.

Molecule `O=C(Nc1cc(Oc2ccccc2)ccn1)c1cccc(Nc2ccncc2)c1` [Compound 107, N-(4-phenoxypyridin-2-yl)-3-(pyridin-4-ylamino)benzamide] yielded an IC50 against Akt3 [2] of under 5000 nM.

`O=C(Nc1cccc(Nc2ccncc2)n1)c1cccc(Nc2ccncc2)c1` [Compound 108, 3-(pyridin-4-ylamino)-N-(6-(pyridin-4-ylamino)pyridin-2-yl)benzamide] showed an IC50 against Akt3 [2] of under 5000 nM.

`Cc1cc(Nc2cccc(C(=O)Nc3cccc(Nc4ccccc4)c3)c2)ccn1` [Compound 109, 3-((2-methylpyridin-4-yl)amino)-N-(3-(phenylamino)phenyl)benzamide]: on Akt3 [2], the IC50 was under 1000 nM.

At Akt3 [2], `O=C1c2ccc(Nc3ccncc3)cc2CN1c1cccc(Nc2ccncc2)c1` [Compound 110, 5-(pyridin-4-ylamino)-2-(3-(pyridin-4-ylamino)phenyl)isoindolin-1-one] had a 50% inhibitory concentration (IC50) of under 500 nM.

With `N#Cc1nccc(Nc2cccc(NC(=O)c3cccc(Nc4ccnc5ccc(F)cc45)c3)c2)c1C(F)(F)F` [Compound 112, N-(3-(2-cyano-3-(trifluoromethyl)pyridin-4-ylamino)phenyl)-3-(6-fluoroquinolin-4-ylamino)benzamide], the half-inhibitory concentration (IC50) on Akt3 [2] is under 5000 nM.

Consider `N#Cc1cc(Nc2cccc(NC(=O)c3cccc(Nc4ccnc5ccc(F)cc45)c3)c2)ccn1` [Compound 113, N-(3-(2-cyanopyridin-4-ylamino)phenyl)-3-(6-fluoroquinolin-4-ylamino)benzamide], for which, on Akt3 [2], the IC50 is under 1000 nM.

At Akt3 [2], `Cc1cc(Nc2ccc3c(c2)CN(c2cccc(Nc4ccncc4)c2)C3=O)ccn1` [Compound 114, 5-(2-methylpyridin-4-ylamino)-2-(3-(pyridin-4-ylamino)phenyl)isoindolin-1-one] showed a concentration for half-maximal inhibition (IC50) of under 1000 nM.

On Akt3 [2], `Cc1cc(Nc2ccc3c(c2)CN(c2cccc(Nc4cccc(F)c4)c2)C3=O)ccn1` [Compound 118, 2-(3-(3-fluorophenylamino)phenyl)-5-(2-methylpyridin-4-ylamino)isoindolin-1-one] returned an IC50 of under 500 nM.

For `Cc1nccc(Nc2ccc3c(c2)CN(c2cccc(Nc4ccncc4)c2)C3=O)c1Cl` [Compound 119, 5-(3-chloro-2-methylpyridin-4-ylamino)-2-(3-(pyridin-4-ylamino)phenyl)isoindolin-1-one], on Akt3 [2], the half-maximal inhibitory concentration (IC50) was under 2000 nM.

Regarding `Cc1cc(Nc2ccc3c(c2)CN(c2cccc(Nc4ccc(F)cc4)c2)C3=O)ccn1` [Compound 120, 2-(3-(4-fluorophenylamino)phenyl)-5-(2-methylpyridin-4-ylamino)isoindolin-1-one], the IC50 on Akt3 [2] was under 100 nM.

With `Cc1cc(Nc2cccc(C(=O)Nc3cc(Nc4ccncc4)ccn3)c2)cc(N)n1` [Compound 125, 3-(2-amino-6-methylpyridin-4-ylamino)-N-(4-(pyridin-4-ylamino)pyridin-2-yl)benzamide], the half-inhibitory concentration (IC50) on Akt3 [2] is under 5000 nM.

`O=C(Nc1cc(Nc2ccncc2)ccn1)c1cccc(Nc2cccc3ncccc23)c1` [Compound 126, N-(4-(pyridin-4-ylamino)pyridin-2-yl)-3-(quinolin-5-ylamino)benzamide] showed an IC50 at Akt3 [2] of under 1000 nM.

Regarding `Cc1c(Nc2cccc(C(=O)Nc3cc(Nc4ccncc4)ccn3)c2)ccnc1N` [Compound 127, 3-(2-amino-3-methylpyridin-4-ylamino)-N-(4-(pyridin-4-ylamino)pyridin-2-yl)benzamide], the half-maximal inhibitory concentration (IC50) on Akt3 [2] was under 5000 nM.

In the case of `Nc1cc(Nc2cccc(C(=O)Nc3cc(Nc4ccncc4)ccn3)c2)ccn1` [Compound 128, 3-(2-aminopyridin-4-ylamino)-N-(4-(pyridin-4-ylamino)pyridin-2-yl)benzamide], the IC50 on Akt3 [2] is under 5000 nM.

As to `Cc1c(Nc2cccc(C(=O)Nc3cccc(Nc4ccccc4)c3)c2)ccnc1N` [Compound 129, 3-(2-amino-3-methylpyridin-4-ylamino)-N-(3-(phenylamino)phenyl)benzamide], the IC50 against Akt3 [2] is under 5000 nM.

The molecule `Nc1cc(Nc2cccc(C(=O)Nc3cccc(Nc4ccccc4)c3)c2)ccn1` [Compound 130, 3-(2-aminopyridin-4-ylamino)-N-(3-(phenylamino)phenyl)benzamide] returned an IC50 against Akt3 [2] of under 1000 nM.

`Cc1cc(Nc2cccc(C(=O)Nc3cccc(Nc4ccccc4)c3)c2)cc(N)n1` [Compound 131, 3-(2-amino-6-methylpyridin-4-ylamino)-N-(3-(phenylamino)phenyl)benzamide]: the IC50 against Akt3 [2] was under 10000 nM.

The molecule `O=C1c2ccc(Nc3ccncc3)cc2CN1c1cccc(NC2CCCC2)c1` [Compound 132, 2-(3-(cyclopentylamino)phenyl)-5-(pyridin-4-ylamino)isoindolin-1-one] showed an IC50 on Akt3 [2] of under 1000 nM.
